Earlier results in patent US8026262B2, “Chemical compounds” (GlaxoSmithKline LLC, priority 2006, dated 2011).

How the values were obtained:
[1] = system: ovariectomized (OVX) rats

Row | Molecule | bone mineral density (BMD) of femur (ORX rats; 4 weeks, as markedly as DHT) | levator ani muscle weight (ORX rats; 4 weeks, as markedly as DHT) | prostate weight (ORX rats; versus eugonadal rats, at any doses tested) | periosteal mineral apposition rate of the femur [1] | BMD of femoral cortical bone ([1]; 2 month period) | biomechanical strength of femoral cortical bone ([1]; 2 month period)
1 | CN(C)[C@H]1C[C@@H](C(C)(C)CO)Nc2ccc([N+](=O)[O-])cc21 [Example S-40503] | increased | increased | not elevated | increase | significantly increased | significantly increased
2 | estrogen | – | – | – | – | – | did not
